Data reported in patent publication US9090593B2, “Bicyclic compounds as Pim inhibitors” (AMGEN INC., priority 2010, dated 2015).

Columns and labels:
[1] = biological target: T1, full length recombinant Pim-1 protein (Homo sapiens, UniProt P11309); assay: Pim-1 enzyme assay (HTRF, phosphorylation of biotinylated-BAD (S112) peptide); format: biochemical; settings: read-out: Pim_1_IC50
T1 construct: by full length recombinant Pim-1, Pim-2, or Pim-3 protein; hexahistidine tag followed by a thrombin cleavage site (N); made in house; host or cells: Sf9 (baculovirus) or E. coli (pET28)
Excerpt: (§1) These cDNAs were used as templates in PCR reactions to produce full-length DNA clones of the PIMs. […] PCR products were digested with […] and EcoRI for Pim-1 and BamHI and EcoRI for Pim-2 and ligated into a modified baculovirus transfer vector (pFastBac1) cleaved with BamHI and EcoRI. For bacterial expression, the same cleaved PCR products encoding Pim-1 or Pim-2 were ligated into a modified E. coli expression vector pET28(a) cleaved with BamHI and EcoRI Amino-terminal hexahistidine tags followed by a thrombin cleavage site were previously added to the vectors using standard methods of molecular biology. Recombinant baculoviruses expressing Pim-1 or Pim-2 were made using standard methods (Fastbac manual, Invitrogen, Carlsbad, Calif.). Infection of Sf9 cells was done at an m.o.i. of greater than 5 for 24-48 h. Cells were harvested by centrifugation and frozen at −80 C. For E. coli expression, cells carrying pET28-His6-Th-Pim-1 or pET28-His6-Th-Pim-2 were picked from a single colony and grown o/n in LB media. The o/n culture was used to inoculate a 2 liter flask with 500 mL media. This was grown o/n and used to inoculate 15-20 liters of Terrific Broth in a New Brunswick Scientific fermentor. The E. coli were grown at 37° C. to and OD600>1.6. The temperature was dropped to 18° C. and o/n expression was induced with 0.5 mM IPTG. Cells were harvested by centrifugation and frozen at −80° C.
(§2) This step was repeated 3× and the resin was transferred to a 2.5 cm glass column. Ten column volumes of wash buffer (0.05 M HEPES, pH 8.0, 0.1 M NaCl, 0.01 M 2-mercaptoethanol, 10% (w/v) glycerol) were applied to the resin followed by 10 column volumes of elution buffer (0.05 M HEPES, pH 8.0, 0.25 M NaCl, 0.01 M 2-mercaptoethanol, 10% (w/v) glycerol, 0.1 M imidazole). Fractions were analyzed by SDS-PAGE and those containing the protein of interest were pooled and concentrated. The concentrated protein was applied to an Amersham Superdex 75 (XK 26/60) column equilibrated in 0.025 M Tris-HCl, pH 7.5, 0.1 M NaCl, 0.01 M 2-mercaptoethanol, 10% (w/v) glycerol. […] Fractions containing the monomeric protein of interest were pooled, concentrated to ˜2 mg/mL, and stored at −80° C.
(§3) The phosphorylation of biotinylated-BAD (S112) peptide by full length recombinant Pim-1, Pim-2, or Pim-3 protein was detected with streptavidin:Allophycocyanin (APC) conjugate and a europium (Eu) labeled antibody directed against phosphorylated-BAD (S112). […] The fluorescence is directly proportional to the amount of phosphorylated BAD peptide present in the reaction.
(§4) A reference compound was included on each assay plate in order to validate that plate; on one plate of every assay run, two additional reference compounds were included.
(§5) The final buffer conditions were as follows: 60 mM Hepes, pH 7.0, 0.05% BSA, 2 mM DTT. […] The reaction was stopped by the addition of 3 mM EDTA, and fluorescence was measured by an HTRF® Rubystar microplate reader. For each plate, percent of control (POC) values were calculated for each well. Values for the IC50 IP were estimated using a standard 4-parameter logistic model.

[2] = biological target: T2, full length recombinant Pim-2 protein (Homo sapiens, UniProt Q9P1W9); assay: Pim-2 enzyme assay (HTRF, phosphorylation of biotinylated-BAD (S112) peptide); format: biochemical; settings: read-out: Pim2_IC50
T2 construct: by full length recombinant Pim-1, Pim-2, or Pim-3 protein; hexahistidine tag followed by a thrombin cleavage site (N); made in house; host or cells: Sf9 (baculovirus) or E. coli (pET28)
Excerpt: as §1, §2, §3, §4, §5

T2 sequence (Q9P1W9 whole entry): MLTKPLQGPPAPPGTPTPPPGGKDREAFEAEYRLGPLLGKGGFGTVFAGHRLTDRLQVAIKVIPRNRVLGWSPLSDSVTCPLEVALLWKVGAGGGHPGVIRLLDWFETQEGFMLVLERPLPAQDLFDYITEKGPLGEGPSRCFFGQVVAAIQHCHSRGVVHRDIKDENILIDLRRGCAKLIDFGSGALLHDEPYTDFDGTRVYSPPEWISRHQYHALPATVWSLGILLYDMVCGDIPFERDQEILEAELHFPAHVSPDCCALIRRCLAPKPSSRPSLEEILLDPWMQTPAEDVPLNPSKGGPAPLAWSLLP
T1 sequence (P11309 whole entry): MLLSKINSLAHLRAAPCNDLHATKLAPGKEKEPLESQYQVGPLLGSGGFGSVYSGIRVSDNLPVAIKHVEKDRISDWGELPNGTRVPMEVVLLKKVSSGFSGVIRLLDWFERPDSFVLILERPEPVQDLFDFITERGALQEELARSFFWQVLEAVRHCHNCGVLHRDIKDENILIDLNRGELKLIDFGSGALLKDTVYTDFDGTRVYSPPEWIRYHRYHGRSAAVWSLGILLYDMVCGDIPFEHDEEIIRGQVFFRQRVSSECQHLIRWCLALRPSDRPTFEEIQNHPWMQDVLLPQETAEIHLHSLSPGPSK

IC50 [1] [nM]	IC50 [2] [nM]	Structure (SMILES)
20	67	CN(C)c1nc(-c2n[nH]c3ccc(Nc4c(F)cccc4F)cc23)cc(=O)[nH]1 [Example 285, 6-(5-((2,6-difluorophenyl)amino)-1H-indazol-3-yl)-2-(dimethylamino) pyrimidin-4(3H)-one]
581	> 1000	COc1cnnc(-c2c[nH]c3ccc(-c4ccccc4F)nc23)c1 [Example 286, 5-(2-fluorophenyl)-3-(5-methoxypyridazin-3-yl)-1H-pyrrolo[3,2-b]pyridine]
364	968	NC1CCN(c2cc(-c3c[nH]c4ccc(-c5ccccc5F)nc34)nc(O)n2)CC1 [Example 288, 4-(4-aminopiperidin-1-yl)-6-(5-(2-fluorophenyl)-1H-pyrrolo[3,2-b]pyridin-3-yl)pyrimidin-2-ol]
34	75	N#Cc1cc(-c2ccc3[nH]cc(-c4cncc(O[C@@H]5CCCNC5)n4)c3c2)ccc1F [Example 295]
37	55	N#Cc1ccc(-c2ccc3[nH]cc(-c4cncc(O[C@@H]5CCCNC5)n4)c3c2)cc1F [Example 296]
31	234	c1cc(OC2CCCC2)nc(-c2ccc3[nH]cc(-c4cncc(O[C@@H]5CCCNC5)n4)c3c2)c1 [Example 298]
42	115	c1cnn(-c2cnc(-c3ccc4[nH]cc(-c5cncc(O[C@@H]6CCCNC6)n5)c4c3)cn2)c1 [Example 300]
52	619	CC1CCN(c2cccc(-c3ccc4[nH]cc(-c5cncc(O[C@@H]6CCCNC6)n5)c4c3)n2)CC1 [Example 304]
234	515	CCNC(=O)c1ccc(C)c(-c2ccc3[nH]cc(-c4cncc(O[C@@H]5CCCNC5)n4)c3c2)c1 [Example 313]
288	428	Cc1ccc(C(=O)NC2CCC2)cc1-c1ccc2[nH]cc(-c3cncc(O[C@@H]4CCCNC4)n3)c2c1 [Example 314]
53	297	COc1ccc(Cl)cc1-c1ccc2[nH]cc(-c3cncc(O[C@@H]4CCCNC4)n3)c2c1 [Example 317]
35	347	c1cc2[nH]cc(-c3cncc(O[C@@H]4CCCNC4)n3)c2cc1-c1cncc(OC2CCCC2)n1 [Example 318]
24	68	CN(C)c1cnc(-c2ccc3[nH]cc(-c4cncc(O[C@@H]5CCCNC5)n4)c3c2)cn1 [Example 319]
31	99	CC(C)c1ccc(-c2ccc3[nH]cc(-c4cncc(O[C@@H]5CCCNC5)n4)c3c2)cc1 [Example 322]
21	46	O=C(O)c1cccc(-c2ccc3[nH]cc(-c4cncc(O[C@@H]5CCCNC5)n4)c3c2)c1 [Example 325]
28	141	COc1ncccc1-c1ccc2[nH]cc(-c3cncc(O[C@@H]4CCCNC4)n3)c2c1 [Example 328]
83	514	COc1ccc(OC)c(-c2ccc3[nH]cc(-c4cncc(O[C@@H]5CCCNC5)n4)c3c2)c1 [Example 329]
54	268	Cc1cccc(-c2ccc3[nH]cc(-c4cncc(O[C@@H]5CCCNC5)n4)c3c2)c1C [Example 330]
43	156	CC(C)Cc1ccc(-c2ccc3[nH]cc(-c4cncc(O[C@@H]5CCCNC5)n4)c3c2)cc1 [Example 332]
72	149	CS(=O)(=O)Nc1cc(-c2ccc3[nH]cc(-c4cncc(O[C@@H]5CCCNC5)n4)c3c2)cnc1Cl [Example 334]
56	592	Nc1ccc(Oc2ncccc2-c2ccc3[nH]cc(-c4cncc(O[C@@H]5CCCNC5)n4)c3c2)cc1 [Example 337]
42	260	c1cc2[nH]cc(-c3cncc(O[C@@H]4CCCNC4)n3)c2cc1-c1cncc(C2CCCN2)c1 (stereo partly shown) [Example 340]

IC50 [1] [nM]	IC50 [2] [nM]	Structure (SMILES)
159	> 1000	COc1cc(C#N)c(-c2ccc3[nH]cc(-c4cncc(O[C@@H]5CCCNC5)n4)c3c2)cc1OC(C)C [Example 342]
105	363	COc1cc(C#N)cc(-c2ccc3[nH]cc(-c4cncc(O[C@@H]5CCCNC5)n4)c3c2)c1OC [Example 346]
364	> 1000	CCCOc1c(OC)cc(C#N)cc1-c1ccc2[nH]cc(-c3cncc(O[C@@H]4CCCNC4)n3)c2c1 [Example 348]
30	290	CC(=O)Nc1cc(-c2ccc3[nH]cc(-c4cncc(O[C@@H]5CCCNC5)n4)c3c2)cc(C(F)(F)F)c1 [Example 349]
30	133	CC(C)Oc1ccc(-c2ccc3[nH]cc(-c4cncc(O[C@@H]5CCCNC5)n4)c3c2)cc1C#N [Example 352]
159	889	Cc1ccc(C(F)(F)F)cc1-c1ccc2[nH]cc(-c3cncc(O[C@@H]4CCCNC4)n3)c2c1 [Example 353]
834	> 1000	COc1cc(C#N)cc(-c2ccc3[nH]cc(-c4cncc(O[C@@H]5CCCNC5)n4)c3c2)c1OC(C)C [Example 354]
57	253	FC(F)(F)COc1cncc(-c2n[nH]c3ccc(-c4cncc(C5CC5)n4)cc23)n1 [Example 363]
126	> 1000	c1cc(C2CC2)nc(-c2ccc3[nH]cc(-c4cncc(C5CC5)n4)c3c2)n1 [Example 370]
26	113	c1cc(C2CC2)nc(-c2c[nH]c3ccc(-c4cncc(C5CC5)n4)cc23)n1 [Example 371]
75	243	Cn1nccc1-c1ccc2[nH]nc(-c3cncc(O[C@@H]4CCCNC4)n3)c2c1 [Example 375]
21	275	COc1cncc(-c2n[nH]c3ccc(-c4nccc(N5CCOC[C@@H]5C)n4)cc23)n1 [Example 376]
55	231	COc1cncc(-c2n[nH]c3ccc(-c4nccc(C(C)C)n4)cc23)n1 [Example 377]
627	> 1000	COc1cncc(-c2n[nH]c3ccc(-c4cc(C(F)(F)F)ccn4)cc23)n1 [Example 378]
67	> 1000	CC(C)Oc1cncc(-c2n[nH]c3ccc(-c4nccc(N5CCOC[C@@H]5C)n4)cc23)n1 [Example 380]
50	335	COc1cncc(-c2n[nH]c3ccc(-c4nccc(NC5CC5)n4)cc23)n1 [Example 382]
56	457	FCCOc1cncc(-c2n[nH]c3ccc(-c4nccc(C5CC5)n4)cc23)n1 [Example 385]
93	230	CC(C)Oc1cncc(-c2n[nH]c3ccc(-c4cnn(C(C)C)c4)cc23)n1 [Example 387]
116	124	COc1cncc(-c2n[nH]c3ccc(-c4cnn(C(C)C)c4)cc23)n1 [Example 388]
173	200	O=C(NC1CC1)c1ccc(F)c(-c2ccc3[nH]nc(-c4cncc(OCCF)n4)c3c2)c1 [Example 389]
119	241	NC(=O)c1ccc(F)c(-c2ccc3[nH]nc(-c4cncc(OCCF)n4)c3c2)c1 [Example 390]
> 1000	> 1000	c1cc2[nH]nc(-c3cncc(O[C@@H]4CNCCC45CC5)n3)c2cc1N1CCOCC1 [Example 399]
